In series [1] the test system is recurrent glioblastoma. The following applies: glioblastoma patients; erlotinib in combination with temsirolimus; cited from earlier work.
For series [2] the following is noted: temsirolimus combined with sorafenib; 9 of 19 patients; cited from earlier work.
Series [3] relates to recurrent glioblastoma. Put plainly: FLT-PET and DCE-/DSC-/DWI-MRI pharmacodynamic imaging. It counts as in vivo, human.
In series [4] the test system is recurrent glioblastoma. In words: Efficacy: tumor response. It counts as in vivo, human. The settings on record: for Median PFS: dose expansion phase.
For series [5] the following is noted: human, in vivo.
Series [6] can be described thus: Safety assessment: adverse events. Format: in vivo.
The nature of series [7]: Serum pharmacokinetics of AEE788 and its metabolite AQM674.
Series [8] is classed as in vivo, human. The settings on record: for concentration at 12 h: serum, Serum concentration; for concentration at 12 h / Serum concentration / Tumor concentration: approximately 12 hours after 8th AEE788 (250 mg) dose.

The Tmax is the time from dosing to the highest level. Usually half-life stands for the time needed for the level to fall by half in the phase considered. The term AUC(0-t) denotes the area under the concentration-time curve up to a stated or last time point. What is called Cmax is the peak of the concentration-time curve. Usually Kp stands for the ratio of the level in a tissue or fluid to that in plasma or blood.

Read-outs that look alike come from different tables or passages of the source.

With `C#Cc1cccc(Nc2ncnc3cc(OCCOC)c(OCCOC)cc23)c1` [erlotinib], in the series with recurrent glioblastoma [1], the “6-month PFS” value was 12.5% and the PR entry is “none”.

`CO[C@H]1C[C@@H]2CC[C@@H](C)[C@@](O)(O2)C(=O)C(=O)N2CCCC[C@H]2C(=O)O[C@H]([C@H](C)C[C@@H]2CC[C@@H](OC(=O)C(C)(CO)CO)[C@H](OC)C2)CC(=O)[C@H](C)/C=C(\C)[C@@H](O)[C@@H](OC)C(=O)[C@H](C)C[C@H](C)/C=C/C=C/C=C/1C` [temsirolimus]: the “grade 3 thrombocytopenia, patients” value in series [2] was 47%.

`CCN1CCN(Cc2ccc(-c3cc4c(N[C@H](C)c5ccccc5)ncnc4[nH]3)cc2)CC1` [AEE788]: the “change in FLT-PET parameters” value with recurrent glioblastoma [3] (FLT-PET in 6 patients (250, 400, 600 mg)) is on record as “one patient experienced a significant decrease in PET parameters”. Further, the “pharmacodynamic effects based on FLT-PET and/or MRI analyses” value in the series on recurrent glioblastoma [3] (any dose level) is listed as “no significant pharmacodynamic effects”. Also, the “overall best response: SD for > 3 cycles, patients” value in the series with recurrent glioblastoma [4] (6 of 36 patients) is 17%. Moreover, the “Treatment discontinuation due to progressive disease” value with recurrent glioblastoma [4] (Group A, of 26 patients) is given as 18 (69.2) n (%); in the series with recurrent glioblastoma [4] (Group B, of 14 patients), 11 (78.6) n (%). For the same compound, the “complete or partial response” value with recurrent glioblastoma [4] (all patients) is “No CR or PR”. Moreover, the “Median PFS” value was 2.7 (90% CI: 1.9, 2.8) months in the series with recurrent glioblastoma [4] (Group A) and 1.6 (90% CI: 0.2, 2.6) months in the series on recurrent glioblastoma [4] (Group B). For the same compound, the “disease progression causing treatment discontinuation, patients” value in the series on recurrent glioblastoma [4] (dose-escalation EIACD group, all dose levels (11 patients)) was found to be 78.6%; with recurrent glioblastoma [4] (dose-escalation non-EIACD group, all dose levels (18 patients)), 69.2%; in the series with recurrent glioblastoma [4] (dose-expansion Arm 1, all dose levels (5 patients)), 71.4%; with recurrent glioblastoma [4] (dose-expansion Arm 2, all dose levels (10 patients)), 58.8%. Moreover, the “PK steady state reached” value in series [5] is no more than 15 days. Moreover, the “accumulation after daily (q 24 h) administration versus a single dose” value in series [5] is on record as 2-8 times. Besides, the “effect of EIACD on overall exposure / concentrations” value in series [5] was “reduced”. Further, the “exposure of Group B patients at 600 mg relative to Group A patients at 550 mg” value in series [5] is “half”. Besides, in series [5], the “fold range in exposure over an 11-fold range in doses (50–550 mg)” value amounted to 52 fold. The “mean coefficient of variation in AUC0–24” value in series [5] is listed as 67%. Further, the “range of coefficient of variation in AUC0–24” value in series [5] is 47-102%. In addition, in series [5] (15 day), the “exposure on day 15 relative to day 1” value is listed as “approximately 4.5 fold”. Further, the “deaths within 28 days of last dose of AEE788” value in series [6] (Group A) was determined as 4 deaths. Further, the “Treatment discontinuation due to death” value in series [6] (Group A, of 26 patients) is given as 2 (7.7) n (%); in series [6] (Group B, of 14 patients), 0 (0) n (%). Besides, in series [6] (all disease progression), the “deaths during AEE788 therapy” value was “Three”. Moreover, in series [6] (human, in vivo), the “hepatotoxicity (at least grade 2 AST or ALT elevations), patients” value is listed as 27%. The “patients who discontinued because of SAEs” value in series [6] (human, in vivo) is 17%. The “patients who discontinued treatment because of AEs” value in series [6] (human, in vivo) is reported as 28%. The “patients with grade 3/4 AST or ALT elevations” value in series [6] (human, in vivo) came to 22%. In addition, the “patients reporting at least one AE” value in series [6] (in vivo) was “All patients”. The “relationship between higher AEE788 dose levels and AST or ALT abnormalities” value in series [6] (in vivo) is “No relationship”. Further, the Tmax amounted to 5 h in series [7] (human, serum, oral); 3 h in series [7] (human, serum, oral, 50 mg/day); 4.3 h in series [7] (human, serum, oral, 100 mg/day); 9 h in series [7] (human, serum, oral, 200 mg/day); 5.9 h in series [7] (human, serum, oral, 250 mg/day); 4.9 h in series [7] (human, serum, oral, 300 mg/day). The time to peak (Tmax) in series [7] (human, serum, oral, 400 mg/day) was found to be 6.7 h; in series [7] (human, serum, oral, 450 mg/day) it was 11 h; in series [7] (human, serum, oral, 550 mg/day) it was 12.5 h; in series [7] (human, serum, oral, 600 mg/day), 3.7 h; in series [7] (human, serum, oral, 800 mg/day) it was 3 h. The half-life in series [7] (human, serum, oral) is greater than 1440 min. The area under the curve AUC(0-t) in series [7] (human, serum, oral, 50 mg/day) came out at 82 ng·h/mL; in series [7] (human, serum, oral, 100 mg/day), 168 ng·h/mL; in series [7] (human, serum, oral, 200 mg/day), 189 ng·h/mL; in series [7] (human, serum, oral, 250 mg/day), 1440 ng·h/mL; in series [7] (human, serum, oral, 300 mg/day), 628 ng·h/mL; in series [7] (human, serum, oral, 400 mg/day), 1150 ng·h/mL. In addition, the AUC(0-t) in series [7] (human, serum, oral, 450 mg/day) was found to be 3000 ng·h/mL; in series [7] (human, serum, oral, 550 mg/day), 4300 ng·h/mL; in series [7] (human, serum, oral, 600 mg/day) it was 730 ng·h/mL; in series [7] (human, serum, oral, 800 mg/day) it was 1460 ng·h/mL. The Cmax in series [7] (human, serum, oral, 50 mg/day) amounted to 7.7 ng/mL; in series [7] (human, serum, oral, 100 mg/day) it was 12.7 ng/mL; in series [7] (human, serum, oral, 200 mg/day), 8.2 ng/mL; in series [7] (human, serum, oral, 250 mg/day), 74.5 ng/mL; in series [7] (human, serum, oral, 300 mg/day), 55.2 ng/mL; in series [7] (human, serum, oral, 400 mg/day), 77.1 ng/mL. Besides, the Cmax in series [7] (human, serum, oral, 450 mg/day) amounted to 148 ng/mL; in series [7] (human, serum, oral, 550 mg/day), 234 ng/mL; in series [7] (human, serum, oral, 600 mg/day), 71.8 ng/mL; in series [7] (human, serum, oral, 800 mg/day), 95.2 ng/mL. This compound returned a Kp in series [8] (human, glioblastoma tumor / plasma, oral, 250 mg) of 14 to 59. Besides, the concentration at 12 h in series [8] (human, oral, 250 mg, Patient 1) was 57.3 ng/mL; in series [8] (human, oral, 250 mg, Patient 2), 41.9 ng/mL; in series [8] (human, oral, 250 mg, Patient 3), 141 ng/mL; in series [8] (human, oral, 250 mg, Patient 4), 110 ng/mL.

With `C[C@@H](Nc1ncnc2[nH]c(-c3ccc(CN4CCNCC4)cc3)cc12)c1ccccc1` [AQM674], the “exposure on day 15 relative to day 1” value in series [5] is listed as roughly 3 fold. Moreover, the “time of maximum serum concentration after administration, on average” value in series [5] came out at 4.6 h. Further, in series [7] (Group A), the “fold range in exposure over an 11-fold range in doses (50–550 mg)” value stood at 20 fold. In addition, in series [7] (Group B (EIACD) vs Group A), the “effect of EIACD on overall exposure / concentrations” value is on record as “reduced”. Also, in series [7] (human, in vivo), the “accumulation after daily (q 24 h) administration versus a single dose” value is listed as 2-8 times. For the same compound, the “PK steady state reached” value in series [7] (once-daily dosing) was no more than 15 days. Further, the Serum concentration in series [8] (Patient 1) is given as 20.6 ng/mL; in series [8] (Patient 2), 22.8 ng/mL; in series [8] (Patient 3), 31.3 ng/mL; in series [8] (Patient 4), 22.8 ng/mL. Moreover, the Tumor concentration is given as 196.7 ng/mL in series [8] (Patient 1), 411.2 ng/mL in series [8] (Patient 2), 299.5 ng/mL in series [8] (Patient 3) and 93.9 ng/mL in series [8] (Patient 4).

Source of the values: paper PMC4351868 (Cancer chemotherapy and pharmacology, 2012).
